The NIST ThermoML archive (doi:10.1021/je400630f)

Assay: xn = mol fraction of the nth substance listed
Conditions: 100 kPa, Liquid; for viscosity: Capillary tube (Ostwald / Ubbelohde) method

CCCCO [butan-1-ol] + CCO
Conditions | mass density, 283.15 K [kg/m3] | mass density, 293.15 K [kg/m3] | mass density, 298.15 K [kg/m3] | mass density, 303.15 K [kg/m3] | mass density, 313.15 K [kg/m3] | viscosity, 283.15 K [mPa·s] | viscosity, 293.15 K [mPa·s] | viscosity, 298.15 K [mPa·s] | viscosity, 303.15 K [mPa·s] | viscosity, 313.15 K [mPa·s]
x2 = 0 | 817.3 | 809.6 | 805.8 | 802.1 | 794.3 | 3.822 | 2.859 | 2.558 | 2.236 | 1.736
x2 = 0.1002 | 815.9 | 808.3 | 804.5 | 800.6 | 792.8 | 3.528 | 2.645 | 2.371 | 2.091 | 1.631
x2 = 0.2008 | 814.5 | 806.8 | 803 | 799.1 | 791.2 | 3.198 | 2.44 | 2.192 | 1.938 | 1.526
x2 = 0.3018 | 813.3 | 805.6 | 801.7 | 797.8 | 789.8 | 2.887 | 2.235 | 2.017 | 1.788 | 1.42
x2 = 0.4006 | 811.7 | 803.8 | 799.9 | 795.9 | 787.9 | 2.63 | 2.048 | 1.853 | 1.636 | 1.321
x2 = 0.5002 | 809.6 | 801.6 | 797.7 | 793.7 | 785.6 | 2.404 | 1.879 | 1.703 | 1.506 | 1.225
x2 = 0.6008 | 807.7 | 799.8 | 795.8 | 791.8 | 783.6 | 2.196 | 1.715 | 1.554 | 1.379 | 1.135
x2 = 0.7002 | 805.6 | 797.5 | 793.4 | 789.3 | 781 | 1.993 | 1.567 | 1.42 | 1.274 | 1.058
x2 = 0.7991 | 803.3 | 795.1 | 790.9 | 786.8 | 778.3 | 1.811 | 1.421 | 1.299 | 1.175 | 0.985
x2 = 0.8997 | 800.8 | 792.4 | 788.2 | 784.1 | 776 | 1.644 | 1.299 | 1.188 | 1.074 | 0.91

CCCCCCCCCCO [decan-1-ol] + CCO
Conditions | mass density, 283.15 K [kg/m3] | mass density, 293.15 K [kg/m3] | mass density, 298.15 K [kg/m3] | mass density, 303.15 K [kg/m3] | mass density, 313.15 K [kg/m3] | viscosity, 283.15 K [mPa·s] | viscosity, 293.15 K [mPa·s] | viscosity, 298.15 K [mPa·s] | viscosity, 303.15 K [mPa·s] | viscosity, 313.15 K [mPa·s]
x2 = 0 | 836.6 | 829.9 | 826.5 | 823 | 816.2 | 22.06 | 14.5 | 11.47 | 9.61 | 6.9
x2 = 0.09979 | 835.2 | 828.4 | 825 | 821.5 | 814.6 | 18.94 | 12.7 | 10.22 | 8.604 | 6.221
x2 = 0.2 | 833.7 | 826.9 | 823.5 | 820 | 813 | 16.12 | 10.94 | 8.957 | 7.538 | 5.513
x2 = 0.3002 | 831.9 | 825.1 | 821.6 | 818.1 | 811.1 | 13.35 | 9.255 | 7.687 | 6.462 | 4.812
x2 = 0.3999 | 829.5 | 822.6 | 819.1 | 815.5 | 808.8 | 10.96 | 7.668 | 6.509 | 5.468 | 4.146
x2 = 0.5 | 827.7 | 820.6 | 817 | 813.5 | 806.4 | 8.705 | 6.278 | 5.387 | 4.547 | 3.51
x2 = 0.6003 | 824 | 816.8 | 813.2 | 809.5 | 802.1 | 6.674 | 5.013 | 4.346 | 3.726 | 2.92
x2 = 0.6999 | 820.1 | 812.8 | 808.8 | 805.4 | 797.9 | 4.92 | 3.832 | 3.374 | 2.947 | 2.352
x2 = 0.7997 | 814.6 | 807 | 803.1 | 799.3 | 791.5 | 3.54 | 2.73 | 2.459 | 2.195 | 1.813
x2 = 0.9 | 807.9 | 800 | 795.9 | 791.9 | 783.8 | 2.319 | 1.87 | 1.692 | 1.534 | 1.311

CCCCCCCO [heptan-1-ol] + CCO
Conditions | mass density, 283.15 K [kg/m3] | mass density, 293.15 K [kg/m3] | mass density, 298.15 K [kg/m3] | mass density, 303.15 K [kg/m3] | mass density, 313.15 K [kg/m3] | viscosity, 283.15 K [mPa·s] | viscosity, 293.15 K [mPa·s] | viscosity, 298.15 K [mPa·s] | viscosity, 303.15 K [mPa·s] | viscosity, 313.15 K [mPa·s]
x2 = 0 | 829.6 | 822.6 | 819.1 | 815.6 | 808.4 | 10.15 | 7.026 | 5.947 | 5.041 | 3.802
x2 = 0.1001 | 828.1 | 821.1 | 817.6 | 814 | 806.8 | 8.86 | 6.256 | 5.311 | 4.514 | 3.446
x2 = 0.2008 | 826.5 | 819.5 | 815.9 | 812.3 | 805.1 | 7.718 | 5.46 | 4.679 | 3.999 | 3.092
x2 = 0.3009 | 824.8 | 817.7 | 814.1 | 810.4 | 803.1 | 6.653 | 4.681 | 4.097 | 3.523 | 2.751
x2 = 0.4002 | 822.8 | 815.5 | 811.9 | 808.2 | 800.8 | 5.636 | 4.015 | 3.565 | 3.076 | 2.438
x2 = 0.5001 | 819.9 | 812.5 | 808.8 | 805.1 | 797.5 | 4.683 | 3.42 | 3.037 | 2.653 | 2.125
x2 = 0.6002 | 817.6 | 810.2 | 806.4 | 802.6 | 794.9 | 3.765 | 2.869 | 2.541 | 2.237 | 1.818
x2 = 0.6998 | 813.8 | 806.2 | 802.3 | 798.4 | 790.6 | 3.02 | 2.378 | 2.09 | 1.859 | 1.536
x2 = 0.8 | 809.9 | 802.1 | 798.1 | 794.1 | 786.1 | 2.4 | 1.943 | 1.702 | 1.523 | 1.28
x2 = 0.8998 | 804.3 | 796.2 | 792.1 | 788 | 779.7 | 1.851 | 1.535 | 1.375 | 1.222 | 1.04

CCCCCCCCCO [nonan-1-ol] + CCO
Conditions | mass density, 283.15 K [kg/m3] | mass density, 293.15 K [kg/m3] | mass density, 298.15 K [kg/m3] | mass density, 303.15 K [kg/m3] | mass density, 313.15 K [kg/m3] | viscosity, 283.15 K [mPa·s] | viscosity, 293.15 K [mPa·s] | viscosity, 298.15 K [mPa·s] | viscosity, 303.15 K [mPa·s] | viscosity, 313.15 K [mPa·s]
x2 = 0 | 835 | 828.1 | 824.7 | 821.3 | 814.3 | 17.44 | 11.63 | 9.519 | 7.806 | 5.668
x2 = 0.0999 | 834.1 | 827.2 | 823.8 | 820.3 | 813.3 | 14.81 | 10.17 | 8.427 | 6.931 | 5.108
x2 = 0.2 | 832 | 825.1 | 821.6 | 818.1 | 811 | 12.63 | 8.712 | 7.371 | 6.145 | 4.534
x2 = 0.3002 | 830 | 823.2 | 819.7 | 816.1 | 809 | 10.68 | 7.431 | 6.388 | 5.34 | 3.966
x2 = 0.4001 | 827.9 | 820.9 | 817.3 | 813.8 | 806.5 | 8.855 | 6.275 | 5.421 | 4.577 | 3.443
x2 = 0.4999 | 825.3 | 818.2 | 814.5 | 810.9 | 803.6 | 7.184 | 5.234 | 4.529 | 3.845 | 2.946
x2 = 0.6001 | 822.9 | 815.1 | 811.4 | 807.7 | 800.8 | 5.578 | 4.243 | 3.712 | 3.169 | 2.485
x2 = 0.6997 | 818.3 | 810.8 | 807 | 803.3 | 795.6 | 4.208 | 3.319 | 2.936 | 2.536 | 2.042
x2 = 0.7975 | 815 | 807.1 | 803.3 | 799.4 | 791.1 | 3.169 | 2.478 | 2.281 | 1.961 | 1.624
x2 = 0.8998 | 809.5 | 799.4 | 795.3 | 791.3 | 783 | 2.22 | 1.696 | 1.658 | 1.415 | 1.214
